According to paper PMC11130262, “Ebselen analogues delay disease onset and its course in fALS by on-target SOD-1 engagement” (Scientific Reports, 2024):
Where two headings read alike, the source gives them in different places. Blank lines part the entries; values can stand above or below the molecule they belong to.

Key:
[1] = system: mouse neuronal N2a cells expressing G93A SOD1; design: method as in PMID 32862101; settings: N2a cells expressing G93A SOD1, shown again in Fig. 1B; cited from earlier work
[2] = system: SOD1^G93A transgenic mice; experiment: Survival and behavioral experiments of SOD1G93A transgenic mice, chronic oral administration; assay type: in vivo, mouse; settings: for disease onset (mean ± SD): female SOD1G93A mice, 0.016% w/w in powder food (estimated dose 24 mg/kg) from 70 days of age, controls 104.4 ± 8.7 (MR6-8-2) and 106.4 ± 9.0 (MR6-26-2)
Method: Transgenic mice expressing human SOD1^G93A with C57BL/6 background (B6.Cg‐Tg(SOD1*G93A)1Gur/J) (RRID: IMSR_JAX:004435) were prepared for in vivo experiments using our published protocol with determination of the times for disease onset and end-stage were previously[25],[61]. […] The diet was replenished three times per week, and the mice had free access to their assigned diet and deionized water. The body weight of the mice and clasping signs were measured every week. Disease onset was determined by the time when the mice reached maximum body weight. The clasping signs were scored as 0 (no sign), 1 (one hindlimb partially retracted), 2 (both hindlimb partially retracted), or 3 (hindlimbs were entirely retracted), as described elsewhere[62],[63]. Rotarod tests were performed every two weeks, as previously described[61],[62]. Briefly, the mice were placed on the rotating rods, which accelerated from 0 to 30 rpm for 5 min with 15 min interval between each trial. The longest latencies to fall from the rotating rods out of three trials were scored. All behavioral experiments were conducted under non-blinded conditions. The mice were housed in the specific pathogen-free (SPF) environment (with a 12 h light‐dark cycle at 23 ± 1 °C and 50 ± 5% humidity) and treated in compliance with the requirements of the Animal Care and Use Committee, Nagoya University. The experiments using genetically modified mice were approved by the Animal Care and Use Committee and the recombinant DNA experiment committee of Nagoya University. All methods used for transgenic mice experiments were in accordance with relevant guidelines and regulations and all methods are reported in accordance with ARRIVE guideline.

[3] = system: H4 cells expressing G93A SOD1; experiment: ATP bioluminescent (CellTiter-Glo) cell viability assay, H4 cells expressing G93A SOD1; assay type: cell-based, human; settings: for cell survival: 10 and 25 μM, 24 h, individual drugs; for concentration up to which high level of cells viability is seen: dose-response 2.5 to 100 μM
[4] = system: H4 cells expressing A4V SOD1; experiment: ATP bioluminescent (CellTiter-Glo) cell viability assay, H4 cells expressing A4V SOD1; assay type: cell-based, human; settings: for cell survival: 10 and 25 μM, 24 h, individual drugs
Method: (§1) Human H4 neuroglioma cells (HTB-148, ATCC) and mouse Neuro2a neuroblastoma cells (CCL-131, ATCC) were cultured in Dulbecco’s modified Eagle’s medium (DMEM) (Gibco) supplemented with 10%v/v Foetal Bovine Serum (FBS) at 37 °C under humidified atmosphere with 5% CO2. Transfection of the Venus-BiFC SOD1 plasmids to H4 cells was carried out using Turbofect™ transfection agent (#R0533, Thermo Fisher Scientific) following protocols from the manufacture. Briefly, 1.5 × 10^5 H4 cells suspended in 1 mL medium were seeded on a well of 4 compartment-glass bottom dish (Cellview™, Greiner Bio-one) and grown at 37 °C for 24 h. 0.25 µg Venus-BiFC plasmids of wild-type or A4V SOD1 homodimer comprised of equimolar concentrations of VN-SOD1 and SOD1-VC were mixed with 1 µL Turbofect in 0.1 mL FBS-free DMEM and incubated at room temperature for 15 min before adding to seeded H4 cells. […] To determine cell viability, 2.5 × 10^4 cells were seeded in 0.2 mL media in a 96-well plate (Corning Costar, #10695951, Thermo Fisher Scientific). Cell viability was measured either using MTS assay (CellTiter 96, #G3580, Promega) on a plate-reader spectrometer (SpectraMax Plus 384, Molecular Devices) or using CellTiter-GloR 2.0 Assay (#G9241, Promega) following the manufacturer’s protocol. […] BMG POLARstar Omega microplate reader was used for luminescence measurement. To avoid the interference of the antioxidant compounds (ebselen and its analogues) with the luciferase activity in the presence of oxygen, the drugs containing media was replaced with a fresh medium prior to the addition of the reagent.

[5] = target: T1, D90A SOD1 (Homo sapiens, UniProt P00441, D91A); experiment: Bimolecular fluorescence complementation (BiFC) assay of SOD1 aggregation, D90A; assay type: cell-based; settings: for reduction of aggregates / aggregation propensity: D90A, 50 µM
T1 construct: expressed in transfected cells; host or cells: human H4 neuroglioma cells (HTB-148, ATCC)
Method: (§2) Human H4 neuroglioma cells cultured in glass-bottom dishes were transfected with Venus fragments as described above using Turbofect transfection reagent. Transfected H4 cells were stained with 5 µM DRAQ5 nuclear stain (ab108410, Abcam) and incubated at 37 °C for 5 min prior to cell imaging. Live cell imaging was performed on cells maintained in a humidified incubator (37 °C, 5% CO2) using a Zeiss LSM 710 microscope. To obtain large field of view for analysis, images were collected using a 4 × 4 tiles with a 20 × Fluar 0.8 NA (Carl Zeiss, Jena, Germany) at 1024 × 1024 pixels. Excitation of Venus fluorescent protein (VFP) was carried out with 514-nm argon laser while DRAQ5 was excited at 633 nm with a HeNe laser. Emitted light was collected through appropriate filters to eliminate any spill-overs. Image acquisition and processing were carried out using ZEN 2.1 software (Carl Zeiss, Jena Germany).
Following the drug treatment (24 h) of transfected cells and nuclear staining with DRAQ5 for 5 min the tiled images were generated as described above. […] Fiji software[52] was used to determine minimum and maximum diameter of cells and inclusions within the cells in pixel units. These cell/inclusion sizes were then used to set parameters in Cell Profiler[53]. The pipeline was adapted from the Speckle Counter example available from CellProfiler (https://cellprofiler.org/) for the batch analysis of the cells with or without inclusions. The low fluorescent cells missed by the cell profiler were adjusted by manual counting.

[6] = target: T2, H46R SOD1 (Homo sapiens, UniProt P00441, H47R); experiment: Bimolecular fluorescence complementation (BiFC) assay of SOD1 aggregation, H46R; assay type: cell-based; settings: 50 µM
T2 construct: expressed in transfected cells; host or cells: human H4 neuroglioma cells (HTB-148, ATCC)
Method: as §2
Following the drug treatment (24 h) of transfected cells and nuclear staining with DRAQ5 for 5 min the tiled images were generated as described above. […] Fiji software[52] was used to determine minimum and maximum diameter of cells and inclusions within the cells in pixel units. […]

[7] = system: H4 cells expressing wild-type SOD1; experiment: ATP bioluminescent (CellTiter-Glo) cell viability assay, H4 cells expressing wild-type SOD1; settings: wild-type SOD1, dose-response 2.5 to 100 μM, Supplementary Fig. S1
Method: as §1, with “To avoid the interference of the antioxidant compounds (ebselen and its analogues) with the luciferase activity in the presence of oxygen, the drugs containing media was replaced with a fresh medium prior to the addition of the reagent.” left out

[8] = Oral bioavailability and pharmacokinetic study in mice; assay type: in vivo, female CD1 mice
Method: The analysis is based on free measurable amounts of free drug in the plasma and thus is likely to be an underestimation of active drug compound due to the extensive serum albumin binding seen with drugs in this class.
F = (AUCINF-PO/mean AUCINF-IV)/(DosePO/DoseIV) × 100%, AUClast was alternatively used for F calculation when AUCINF was not available or beyond 120% of AUClast. The compound were formulated in 5%DMAC + 95% (20% HP-beta-CD in saline) at 0.2 mg/mL for IV dosing and CMC (0.5%), benzyl alcohol (0.5%), Tween 80 (0.4%) and NaCl (0.9%) at 3 mg/mL for PO dosing, respectively. PK parameters were estimated by non-compartmental model using WinNonlin 8.2.

[9] = system: Neuro2a cells with SOD1^G93A expression; experiment: Proteostasis immunoblotting in cultured Neuro2a cells expressing G93A SOD1; assay type: cell-based, mouse; settings: 10 µM, 24 h; for poly-ubiquitinated proteins: Fig. 6J
Method: Neuro2a cells were seeded on 6 well plate (#140685 Corning Costar) at 5.0 × 10^4/well, and transfected with human wild-type or G93A SOD1 expressing plasmid[25] using Lipofectamine 2000 (Thermo Fisher Scientific) according to the manufacturer’s instructions.

[10] = target: T3, G93A SOD1 (Homo sapiens, UniProt P00441, G94A); experiment: Bimolecular fluorescence complementation (BiFC) assay of SOD1 aggregation, G93A; assay type: cell-based
T3 construct: expressed in transfected cells; host or cells: human H4 neuroglioma cells (HTB-148, ATCC)
Method: Human H4 neuroglioma cells cultured in glass-bottom dishes were transfected with Venus fragments as described above using Turbofect transfection reagent. Transfected H4 cells were stained with 5 µM DRAQ5 nuclear stain (ab108410, Abcam) and incubated at 37 °C for 5 min prior to cell imaging. Live cell imaging was performed on cells maintained in a humidified incubator (37 °C, 5% CO2) using a Zeiss LSM 710 microscope. […]

[11] = system: spinal cords of SOD1^G93A mice; assay type: in vivo, mouse
Method: Immunoblotting and immunofluorescence analyses were performed as described previously. For the analysis of SOD1 oligomers with aberrant disulfide bonds (SOD1 S–S oligomers), sodium dodecyl sulfate–polyacrylamide gel electrophoresis was performed under non-reducing conditions. […] (Medimabs, Montreal, Quebec, Canada) was used at a 1:250 dilution. Other primary antibodies used for the study were anti-β-actin (1:5,000, #A5441, RRID: AB_476744, Sigma-Aldrich), anti-p62 (1:1,000 for immunoblotting, 1:500 for immunohistochemistry, #PM045, RRID: AB_2169714, Medical and Biological Laboratories (MBL), Nagoya, Japan), anti-polyubiquitin (1:1,000 for immunoblotting, 1:500 for immunohistochemistry, #D058‐3, RRID: AB_592937, MBL), and anti-choline acetyltransferase (ChAT) ((1:100 for immunohistochemistry, #AB144P, RRID:AB_2079751, EMD Millipore Corp., Billerica, MA, USA). Rabbit anti-human SOD1 antibody was raised in our laboratory against a recombinant human SOD1 peptide (aa 24–37) and purified with protein A[66].

[12] = target: A4V SOD1 (Homo sapiens, UniProt P00441, A5V)
Method: as §1

[13] = system: SOD1^G93A transgenic mice; design: method as in PMID 32862101; settings: cited from earlier work
[14] = female, CD1, mouse, in vivo, iv, 1 mg/kg
[15] = female, CD1, mouse, in vivo, po, 30 mg/kg

T2 sequence (P00441 whole entry H47R): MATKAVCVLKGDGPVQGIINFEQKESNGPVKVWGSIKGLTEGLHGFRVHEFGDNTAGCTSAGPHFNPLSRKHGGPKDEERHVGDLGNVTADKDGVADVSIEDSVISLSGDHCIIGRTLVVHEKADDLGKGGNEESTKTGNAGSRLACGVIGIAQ
T2 sequence (P00441 2-154 H47R limits assumed): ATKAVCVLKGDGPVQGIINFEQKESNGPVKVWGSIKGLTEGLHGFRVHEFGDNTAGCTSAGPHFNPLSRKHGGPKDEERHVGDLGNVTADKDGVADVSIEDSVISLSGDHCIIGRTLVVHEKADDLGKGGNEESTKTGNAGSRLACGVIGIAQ
T1 sequence (P00441 whole entry D91A): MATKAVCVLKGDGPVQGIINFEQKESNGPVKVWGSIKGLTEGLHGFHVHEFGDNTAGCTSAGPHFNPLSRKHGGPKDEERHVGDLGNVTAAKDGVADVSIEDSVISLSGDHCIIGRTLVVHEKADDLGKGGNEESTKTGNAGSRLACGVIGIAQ
T1 sequence (P00441 2-154 D91A limits assumed): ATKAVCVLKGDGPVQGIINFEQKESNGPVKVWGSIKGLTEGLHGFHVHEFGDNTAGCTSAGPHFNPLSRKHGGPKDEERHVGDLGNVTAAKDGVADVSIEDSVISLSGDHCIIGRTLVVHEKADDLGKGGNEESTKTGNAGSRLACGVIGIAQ
Chain of A4V SOD1 (P00441 whole entry A5V): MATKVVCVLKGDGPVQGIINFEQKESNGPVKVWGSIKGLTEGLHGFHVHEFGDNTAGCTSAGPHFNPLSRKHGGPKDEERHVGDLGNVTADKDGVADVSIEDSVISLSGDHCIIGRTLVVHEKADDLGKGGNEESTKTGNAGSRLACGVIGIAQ
Chain of A4V SOD1 (P00441 2-154 A5V limits assumed): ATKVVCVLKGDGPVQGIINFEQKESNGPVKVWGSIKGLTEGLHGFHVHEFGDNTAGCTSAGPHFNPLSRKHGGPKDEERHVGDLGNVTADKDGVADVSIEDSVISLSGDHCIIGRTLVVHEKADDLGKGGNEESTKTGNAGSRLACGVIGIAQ
T3 sequence (P00441 whole entry G94A): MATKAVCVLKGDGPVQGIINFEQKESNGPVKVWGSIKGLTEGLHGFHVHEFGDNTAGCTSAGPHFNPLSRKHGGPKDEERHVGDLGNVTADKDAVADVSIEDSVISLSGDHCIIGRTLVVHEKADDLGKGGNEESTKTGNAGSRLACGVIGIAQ
T3 sequence (P00441 2-154 G94A limits assumed): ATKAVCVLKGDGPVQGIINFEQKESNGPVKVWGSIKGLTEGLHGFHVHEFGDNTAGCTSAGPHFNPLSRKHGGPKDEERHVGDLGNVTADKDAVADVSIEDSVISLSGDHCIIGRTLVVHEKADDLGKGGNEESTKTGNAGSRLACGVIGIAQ

SMILES: O=c1c2ccccc2[se]n1Cc1cccnc1 [MR6-8-2]
dosage restoring wild-type level viability, lower than edaravone [1]: 100 -fold | disease onset (mean ± SD) [2]: 115.5 ± 9.2 days | cell survival [3]: increased the cell survival | cell survival [4]: increased the cell survival | reduction of aggregates / aggregation propensity [5]: least effective | reduction of aggregates / aggregation propensity [6]: least effective | concentrations giving a sharp fall of viable cells (toxicity) [7]: above 25 µM

SMILES: COc1ccc(Cn2[se]c3ccccc3c2=O)cn1 [MR6-26-2]
dosage restoring wild-type level viability, lower than edaravone [1]: 100 -fold | clasping scores ([2]; SOD1G93A mice, Fig. 5C): improvement | survival time ([2]; SOD1G93A mice, chronic oral): did not show a significant extension | slowing of disease onset ([2]; SOD1G93A mice, oral): approximately 15 days | body weights ([2]; Supplementary Fig. S4): unaffected | rotarod performance ([2]; Supplementary Fig. S4): unaffected | disease onset (mean ± SD) [2]: 121.1 ± 7.2 days | AUC(0-inf) [8, 14]: 203 ng·h/mL | AUC(0-t) [8, 14]: 197 ng·h/mL | MRT inf [8, 14]: 0.267 h | Vd [8, 14]: 1.37 L/kg | clearance [8, 14]: 85.7 mL/min/kg | AUC(0-inf) [8, 15]: 1790 ng·h/mL | AUC(0-t) [8, 15]: 1730 ng·h/mL | CL [8, 15]: 4.17 mL/min/kg | MRTINF [8, 15]: 29.5 h | bioavailability [8, 15]: 29% | half-life [8, 15]: 1.5 h | half-life ([8]; female, CD1, mouse, plasma, IV dose at 1 mg/kg, mean, read-out: T1/2 (converted)): 0.347 h | half-life ([8]; female, CD1, mouse, plasma, oral dose of 30 mg/kg, mean, read-out: T1/2 (converted)): 1.35 h | clearance ([8]; mouse, in vivo): fast clearance | cell survival [3]: increased the cell survival | concentration up to which high level of cells viability is seen [3]: up to 25 µM | cell survival [4]: increased the cell survival | concentration up to which high level of cells viability is seen ([4]; dose-response 2.5 to 100 μM): up to 25 µM | concentration reviving the cells to maximum level ([4]; dose-response 2.5 to 100 μM, Supplementary Fig. S1): 12.5 µM | poly-ubiquitinated proteins [9]: reduced | cells with more than 5 inclusions per cell ([5]; D90A SOD1, 50 µM, 24 h): no cells were detected | reduction of aggregates / aggregation propensity [5]: most effective in reducing the aggregates | cells with more than 5 inclusions per cell ([10]; G93A SOD1, 50 µM, 24 h): no cells were detected | reduction of aggregates / aggregation propensity ([10]; G93A, 50 µM): most effective in reducing the aggregates | reduction of aggregates / aggregation propensity [6]: most effective in reducing the aggregates | p62- and poly-ubiquitin-doubly positive inclusions in motor neurons ([11]; 120-days-old SOD1G93A lumbar spinal cord): substantially reduced | SOD1 oligomers with aberrant disulfide bonds in spinal cords ([11]; SOD1G93A mice, 120 days old, non-reducing SDS-PAGE): sharply decreased | misfolded SOD1 (C4F6 antibody) in lumbar spinal cord ([11]; early symptomatic SOD1G93A mice): reduced the accumulation of misfolded SOD1 | motor neuron degeneration (ChAT-positive motor neurons) ([11]; early symptomatic SOD1G93A mice, Fig. 5J): without affecting the motor neuron degeneration | level of poly-ubiquitinated proteins in spinal cords ([11]; immunoblotting, insoluble fractions, 120 days old): decreased | insoluble SOD1 proteins in spinal cords ([11]; mouse, in vivo): sharply decreased | cells displaying more than 5 inclusions per cell ([12]; A4V SOD1, 50 µM, 24 h, 75% in untreated cells): 29% | reduction of aggregates / aggregation propensity ([12]; A4V, 50 µM): most effective in reducing the aggregates | drug concentration found to reduce the aggregates effectively ([12]; A4V, doses 25, 50 and 100 µM, Fig. 3A): 50 µM

SMILES: O=c1c2ccccc2[se]n1-c1ccccc1 [ebselen, 2-phenyl-1,2-benzisoselenazol-3(2H)-one]
cell survival [3]: increased the cell survival | concentration up to which high level of cells viability is seen [3]: up to 25 µM | cell survival [4]: increased the cell survival | concentration up to which high level of cells viability is seen ([4]; dose-response 2.5 to 100 μM): up to 25 µM | neuroprotection in SOD1G93A mice by delaying disease onset [13]: partial neuroprotection | reduction of aggregates / aggregation propensity [5]: least effective | reduction of aggregates / aggregation propensity [6]: least effective

insoluble SOD1 species ([9]; Fig. 6I): tendency to reduce insoluble SOD1 | insoluble p62 ([9]; Fig. 6K): little effect
SMILES: CC1=NN(c2ccccc2)C(=O)C1 [edaravone]
cell survival [3]: increased the cell survival | cell survival [4]: increased the cell survival | poly-ubiquitinated proteins [9]: little effect

SMILES: Nc1nc2ccc(OC(F)(F)F)cc2s1 [riluzole]
effect on proteostasis [9]: no effect on proteostasis
